Data reported in patent US8765779B2, “Tricyclic derivatives and their pharmaceutical use and compositions” (Cephalon, Inc., priority 2009, dated 2014).
Counter-ions that a name gives are not always drawn.

Target: T1, human 5-HT6 receptor (Homo sapiens, UniProt P50406)
T1 construct: host or cells: CHO-K1 cells, stably transfected; membranes prepared in house
Experiment: Human 5-HT6 Receptor Binding Assay ([3H]LSD displacement, scintillation beads)
Details: membranes of CHO-K1 cells with recombinant human 5-HT6, 4 nM [3H]LSD; Table 1, class symbols; read-out: h5-HT6 (Ki)

T1 sequence (P50406 whole entry): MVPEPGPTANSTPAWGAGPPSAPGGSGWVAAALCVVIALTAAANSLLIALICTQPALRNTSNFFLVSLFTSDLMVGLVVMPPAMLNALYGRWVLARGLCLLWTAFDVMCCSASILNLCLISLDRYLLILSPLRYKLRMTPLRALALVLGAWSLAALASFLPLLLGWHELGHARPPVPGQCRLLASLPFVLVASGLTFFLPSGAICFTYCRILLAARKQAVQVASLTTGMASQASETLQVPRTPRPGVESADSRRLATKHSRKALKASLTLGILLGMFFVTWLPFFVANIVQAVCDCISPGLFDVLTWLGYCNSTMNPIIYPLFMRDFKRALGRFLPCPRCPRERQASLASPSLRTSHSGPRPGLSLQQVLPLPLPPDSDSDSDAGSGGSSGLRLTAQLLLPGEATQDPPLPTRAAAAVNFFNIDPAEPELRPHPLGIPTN

Ki	Structure (SMILES)
< 500 nM	CC(C)Oc1cc(F)cc(S(=O)(=O)c2ccc3c(c2)OC2CNCCC32)c1 (stereo not drawn) [Example 417]
< 500 nM	CC(C)Oc1ccccc1S(=O)(=O)c1ccc2c(c1)OC1CNCCC21 (stereo not drawn) [Example 419]
< 500 nM	COc1cc(F)cc(S(=O)(=O)c2ccc3c(c2)OC2CNCCC32)c1 (stereo not drawn) [Example 420]
< 500 nM	O=S(=O)(c1ccc2c(c1)OC1CNCCC21)c1cccc(Cl)c1F (stereo not drawn) [Example 422]
< 500 nM	O=S(=O)(c1ccc2c3c(oc2c1)CNCC3)c1cccc(F)c1F [Example 432]
< 500 nM	O=S(=O)(c1cncc(Cl)c1)c1ccc2c3c(oc2c1)CNCC3 [Example 437]
< 500 nM	O=S(=O)(c1cccnc1)c1ccc2c3c(oc2c1)CNCC3 [Example 438]
< 500 nM	O=S(=O)(c1ccc2c3c(oc2c1)CNCC3)c1cccnc1OCC(F)(F)F [Example 440]
< 500 nM	O=S(=O)(c1cncc(F)c1)c1ccc2c3c(oc2c1)CNCC3 [Example 441]
> 1000 nM	[O-][S+](c1ccc2oc3c(c2c1)CCNC3)c1cc(F)cc(F)c1F (stereo not drawn) [Example 443]
> 1000 nM	[O-][S+](c1ccc2oc3c(c2c1)CCNC3)c1cccnc1F (stereo not drawn) [Example 444]
> 1000 nM	[O-][S+](c1ccc2oc3c(c2c1)CCNC3)c1cccnc1Cl (stereo not drawn) [Example 445]
> 1000 nM	COc1cc(S(=O)(=O)c2ccc3c4c(oc3c2)CNCC4(C)C)c[n+]([O-])c1 [Example 450]
< 500 nM	COc1cncc(S(=O)(=O)c2ccc3c4c(oc3c2)CNCC4(C)C)c1 [Example 451]
< 500 nM	CC1(C)CNCc2oc3cc(S(=O)(=O)c4cncc(Cl)c4)ccc3c21 [Example 452]
> 1000 nM	COc1cc(S(=O)(=O)c2ccc3c4c(oc3c2)C2(CCOC2)NCC4(C)C)c[n+]([O-])c1 (stereo not drawn) [Example 453]

Ki	Structure (SMILES)
> 1000 nM	O=S(=O)(c1ccc2c(c1)OC1CNCCC21)c1cccc2c1OCCO2 (stereo not drawn) [Example 462]
< 500 nM	COc1c(F)cc(F)cc1S(=O)(=O)c1ccc2c(c1)OC1CNCCC21 (stereo not drawn) [Example 463]
< 500 nM	CC1(C)NCCc2c1oc1cc(S(=O)(=O)c3cccc4c3OC(F)(F)O4)ccc21 [Example 465]
< 500 nM	CC1(C)NCCc2c1oc1cc(S(=O)(=O)c3cccc4c3OCCO4)ccc21 [Example 466]
< 500 nM	O=S(=O)(c1ccc2c3c(oc2c1)CNCC3)c1cccc2c1OCCO2 [Example 467]
< 500 nM	O=S(=O)(c1ccc2c(c1)OC1CNCCC21)c1cccc2c1OC(F)(F)O2 (stereo not drawn) [Example 469]
< 500 nM	COc1c(F)cc(F)cc1S(=O)(=O)c1ccc2c3c(oc2c1)C(C)(C)NCC3 [Example 470]
> 1000 nM	CN(C)C(=O)c1cccc(S(=O)(=O)c2ccc3c4c(oc3c2)CNCC4)c1 [Example 474, N,N-Dimethyl-3-(1,2,3,4-tetrahydro[1]benzofuro[2,3-c]pyridin-7-ylsulfonyl)benzamide hydrochloride]
> 1000 nM	CN(C)C(=O)c1c(F)cccc1S(=O)(=O)c1ccc2c(c1)OC1CNCCC21 (stereo not drawn) [Example 476]
> 1000 nM	CNC(=O)c1c(F)cccc1S(=O)(=O)c1ccc2c(c1)OC1CNCCC21 (stereo not drawn) [Example 477]
500 to 1000 nM	CNC(=O)c1cccc(S(=O)(=O)c2ccc3c4c(oc3c2)CNCC4)c1 [Example 478]
> 1000 nM	CN(C)C(=O)c1c(F)cccc1S(=O)(=O)c1ccc2c3c(oc2c1)CNCC3 [Example 479]
< 500 nM	COc1cc(OC)cc(S(=O)(=O)c2ccc3c(c2)OC2CNCCC32)c1 (stereo not drawn) [Example 480]
< 500 nM	O=S(=O)(c1ccc2c(c1)OC1CNCCC21)c1cccc(OCC2CCOCC2)c1F (stereo not drawn) [Example 482]
< 500 nM	CC(C)Oc1cccc(S(=O)(=O)c2ccc3c(c2)OC2CNCCC32)c1F (stereo not drawn) [Example 483]

The remaining lines, values behind:

Structure (SMILES)	Ki
COc1cccc(S(=O)(=O)c2ccc3c(c2)OC2CNCCC32)c1F (stereo not drawn) [Example 416]	< 500 nM
O=S(=O)(c1ccc2c(c1)OC1CNCCC21)c1cccc2c1CCO2 (stereo not drawn) [Example 418]	< 500 nM
O=S(=O)(c1ccc2c(c1)OC1CNCCC21)c1ccccc1OCC(F)(F)F (stereo not drawn) [Example 421]	< 500 nM
O=S(=O)(c1ccc2c(c1)OC1CNCCC21)c1cccnc1C(F)(F)F (stereo not drawn) [Example 423]	< 500 nM
CC(C)COc1cc(F)cc(S(=O)(=O)c2ccc3c(c2)OC2CNCCC32C)c1 (stereo not drawn) [Example 424]	< 500 nM
CN(C)C(=O)c1cccc(S(=O)(=O)c2ccc3c(c2)OC2CNCCC32C)c1 (stereo not drawn) [Example 425]	> 1000 nM
CCOc1cc(F)cc(S(=O)(=O)c2ccc3c(c2)OC2CNCCC32C)c1 (stereo not drawn) [Example 426]	< 500 nM
CC(C)Oc1cc(F)cc(S(=O)(=O)c2ccc3c(c2)OC2CNCCC32C)c1 (stereo not drawn) [Example 427]	< 500 nM
CC12CCNCC1Oc1cc(S(=O)(=O)c3cc[nH]c(=O)c3)ccc12 (stereo not drawn) [Example 428]	> 1000 nM
CC12CCNCC1Oc1cc(S(=O)(=O)c3cncc(F)c3)ccc12 (stereo not drawn) [Example 429]	> 1000 nM
CC12CCNCC1Oc1cc(S(=O)(=O)c3cncc(Cl)c3)ccc12 (stereo not drawn) [Example 430]	< 500 nM
CC12CCNCC1Oc1cc(S(=O)(=O)c3cncc(C(F)(F)F)c3)ccc12 (stereo not drawn) [Example 431]	> 1000 nM
O=S(=O)(c1ccc2c3c(oc2c1)CNCC3)c1cccnc1F [Example 434]	< 500 nM
[O-][S+](c1ccc2c3c(oc2c1)CNCC3)c1cccnc1Cl (stereo not drawn) [Example 435]	> 1000 nM
O=S(=O)(c1ccc2c3c(oc2c1)CNCC3)c1cccnc1Cl [Example 436]	< 500 nM
CC(C)Oc1ncccc1S(=O)(=O)c1ccc2c3c(oc2c1)CNCC3 [Example 439]	< 500 nM

Structure (SMILES)	Ki
[O-][S+](c1ccc2oc3c(c2c1)CCNC3)c1cccc(F)c1F (stereo not drawn) [Example 442]	> 1000 nM
CC(C)Oc1ncccc1[S+]([O-])c1ccc2oc3c(c2c1)CCNC3 (stereo not drawn) [Example 446]	< 500 nM
[O-][S+](c1ccc2oc3c(c2c1)CCNC3)c1cccnc1OCC(F)(F)F (stereo not drawn) [Example 447]	> 1000 nM
O=S(=O)(c1ccc2oc3c(c2c1)CCNC3)c1cccnc1OCC(F)(F)F [Example 448]	< 500 nM
CC(C)Oc1ncccc1S(=O)(=O)c1ccc2oc3c(c2c1)CCNC3 [Example 449]	< 500 nM
COc1cncc(S(=O)(=O)c2ccc3c4c(oc3c2)C2(CCOC2)NCC4(C)C)c1 (stereo not drawn) [Example 454]	< 500 nM
CC1(C)CNC2(CCOC2)c2oc3cc([S+]([O-])c4cncc(Cl)c4)ccc3c21 (stereo not drawn) [Example 455]	> 1000 nM
CC1(C)CNC2(CCOC2)c2oc3cc(S(=O)(=O)c4cncc(Cl)c4)ccc3c21 (stereo not drawn) [Example 456]	< 500 nM
O=S(=O)(c1ccc2c(c1)OC1CNCCC21)c1cccc2c1OCCO2 (stereo not drawn) [Example 457]	< 500 nM
COc1c(F)cc(F)cc1S(=O)(=O)c1ccc2c(c1)OC1CNCCC21 (stereo not drawn) [Example 458]	> 1000 nM
O=S(=O)(c1cncc(C(F)(F)F)c1)c1ccc2c(c1)OC1CNCCC21 (stereo not drawn) [Example 459]	> 1000 nM
CC12CCNCC1Oc1cc(S(=O)(=O)c3cccc4c3OC(F)(F)O4)ccc12 (stereo not drawn) [Example 460]	< 500 nM
O=S(=O)(c1ccc2c(c1)OC1CNCCC21)c1cccc2c1OC(F)(F)O2 (stereo not drawn) [Example 461]	< 500 nM
O=S(=O)(c1cncc(C(F)(F)F)c1)c1ccc2c(c1)OC1CNCCC21 (stereo not drawn) [Example 464]	< 500 nM
CC12CCNCC1Oc1cc(S(=O)(=O)c3cccc4c3OCCO4)ccc12 (stereo not drawn) [Example 468]	< 500 nM
CC(C)Oc1cccc(S(=O)(=O)c2ccc3c(c2)OC2CNCCC32)c1F (stereo not drawn) [Example 481]	< 500 nM
